Data published in paper PMC11345828 (Journal of Medicinal Chemistry, 2024).
Values after ≈ are worked out from the molar mass of the structure shown.

What was measured:
[1] = set-up: method as in PMID 37880389; conditions: including increases in patient troponin I levels; cited from earlier work
[2] = Metabolic stability in hepatocytes, dog; assay type: in vitro ADME; conditions: incubated with 50% of human serum
[3] = Relative plasma protein binding by shift in EC50 in a caspase induction assay, minipig; assay type: in vitro ADME; conditions: minipig vs human
Aqueous solubility = assay type: physicochemical; conditions: aqueous solution; at pH 7.8
[4] = Metabolic stability in hepatocytes, mouse; assay type: in vitro ADME; conditions: incubated with 50% of human serum
Excretion study in rat = assay type: in vivo
[5] = NCI-H929 subcutaneous multiple myeloma xenograft model; assay type: in vivo, mouse; conditions: female, CB17/Icr-Prkdc(scid)/IcrCrl, mouse, in vivo, single dose IV, NCI-H929 xenograft study
Method: (§1) Caspase-Glo 3/7 Assay (PROMEGA #G8090) was performed according to manufacturer’s instructions using 200 ng of sample lysate in a total volume of 100 μL per well. 100 μL of the GLO reagent were added, mixed, and incubated for 90 min at room temperature. The plate was measured on an EnSpireTM Plate reader (luminescence, 0.1s).
(§2) Female BomTac:NMRI-Foxn1nu mice and CB17/Icr-Prkdc(scid)/IcrCrl and were obtained from Taconic Denmark at an age of 6–8 weeks. After arrival of the local animal facility at Boehringer Ingelheim RCV GmbH & Co KG mice were allowed to adjust to housing conditions at least for 5 days before the start of the experiment. Mice were group-housed under pathogen-free and controlled environmental conditions and handled according to the institutional, governmental and European Union guidelines (Austrian Animal Protection Laws, GV-SOLAS and FELASA guidelines). Animal studies were approved by the internal ethics committee and the local governmental committee. To establish subcutaneous tumors mice were injected with 5 × 10^6 A427cells in Matrigel (CB17/Icr-Prkdc(scid)/IcrCrl), 1 × 10^6 NCI-H1048 cells in Matrigel (BomTac:NMRI-Foxn1nu and 5 × 10^6 NCI-H929 cells in Matrigel (CB17/Icr-Prkdc(scid)/IcrCrl). Tumor diameters were measured with a caliper three times a week. The volume of each tumor [in mm^3] was calculated according to the formula “tumor volume = length × diameter^2 × π/6.” To monitor side effects of treatment, mice were inspected daily for abnormalities and body weight was determined three times per week. Animals were sacrificed when the tumors reached a size of 1500 mm^3. […] Tumors were reported as regressing when the tumor volume at a given day was below the tumor volume at treatment start.

[6] = tested on: NCI-H929 cell line-derived MM xenograft; test: as above; assay type: in vivo, mouse; conditions: 60 and 80 mg/kg, single dose IV
Method: as §1, §2

[7] = Relative plasma protein binding by shift in EC50 in a caspase induction assay, rat; assay type: in vitro ADME; conditions: rat vs human
[8] = Relative plasma protein binding by shift in EC50 in a caspase induction assay, dog; assay type: in vitro ADME; conditions: dog vs human
[9] = Metabolic stability in hepatocytes, minipig; assay type: in vitro ADME; conditions: incubated with 50% of human serum
[10] = Metabolic stability in hepatocytes, human; assay type: in vitro ADME; conditions: incubated with 50% of human serum
Dog IV PK = conditions: dosed at 0.5 mg/kg
Method: (§6) For PK analysis, mice and dogs were administered intravenously with compound formulated either in 10% ethanol and 10% Cremophor EL for mice or in 50% ethanol and 50% PEG500 for dogs. Plasma samples were obtained at predefined time points and compound concentrations in plasma were measured by quantitative HPLC-MS/MS using an internal standard. Calibration and quality control samples were prepared using blank plasma from untreated animals. Samples were precipitated with acetonitrile and injected into a HPLC system (Agilent 1200). […] The HPLC was interfaced by ESI operated in positive ionization mode to a triple quadrupole mass spectrometer (6500+ Triple Quad System, SCIEX) operated in multiple reaction monitoring mode. Chromatograms were analyzed with Analyst (SCIEX) and pharmacokinetic parameters were calculated by noncompartmental analysis using proprietary software.

[11] = Metabolic stability in hepatocytes, rat; assay type: in vitro ADME; conditions: incubated with 50% of human serum
Bcl-2 = Bcl-2 (Homo sapiens, UniProt P10415); test: FPA assay, Bcl-2; assay type: binding
Chain of Bcl-2 (P10415 whole entry, species assumed): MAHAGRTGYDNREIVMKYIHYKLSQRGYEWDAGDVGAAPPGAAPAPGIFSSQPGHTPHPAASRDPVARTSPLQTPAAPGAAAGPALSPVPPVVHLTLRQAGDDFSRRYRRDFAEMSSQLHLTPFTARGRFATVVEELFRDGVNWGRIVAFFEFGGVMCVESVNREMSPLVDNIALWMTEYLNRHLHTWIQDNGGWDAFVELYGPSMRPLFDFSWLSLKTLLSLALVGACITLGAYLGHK

OATP1B1/ABCC2 = test: Transporter substrate assessment; assay type: in vitro ADME
[12] = A427 NSCLC subcutaneous xenograft model; assay type: in vivo, mouse; conditions: female, CB17/Icr-Prkdc(scid)/IcrCrl, mouse, in vivo, single agent
Method: (§3) After fixation, tumor samples were embedded in paraffin blocks. Two-μm thick sections of each FFPE-block were prepared on a microtome, placed on glass slides and dewaxed. H&E staining was performed using Papanicolaous Solution 1a Harris′ Hematoxylin solution (Merck) and Shandon Eosin Y aqueous (Thermo) on the Gemini stainer (Thermo). […] Analysis was performed using HALO image analysis software 2.1 (Indica Laboratories). Quantification of Ki67 positivity was performed using multiplex IHC module with integrated AI based nucleus detection and a threshold set for positive nuclei was used. Viable tumor area was calculated from H&E staining using AI based classifier Densenet V2.
as §2

Plasma protein binding = assay type: in vitro ADME; conditions: above the limit of quantification of the assay
Bcl-XL = Bcl-XL (Homo sapiens, UniProt Q07817); test: FPA assay, Bcl-XL; assay type: binding
Chain of Bcl-XL (Q07817 whole entry, species assumed): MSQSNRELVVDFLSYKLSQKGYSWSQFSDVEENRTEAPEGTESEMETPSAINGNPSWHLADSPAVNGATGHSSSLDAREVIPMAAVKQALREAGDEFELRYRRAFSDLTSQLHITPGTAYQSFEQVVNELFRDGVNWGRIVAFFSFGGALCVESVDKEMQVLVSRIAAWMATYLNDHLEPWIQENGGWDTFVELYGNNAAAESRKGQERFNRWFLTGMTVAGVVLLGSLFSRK

NCI-H1048 SCLC xenograft = conditions: topotecan at 2.5 mg/kg q3/4d
Method: Female BomTac:NMRI-Foxn1nu mice and CB17/Icr-Prkdc(scid)/IcrCrl and were obtained from Taconic Denmark at an age of 6–8 weeks. After arrival of the local animal facility at Boehringer Ingelheim RCV GmbH & Co KG mice were allowed to adjust to housing conditions at least for 5 days before the start of the experiment. […] To establish subcutaneous tumors mice were injected with 5 × 10^6 A427cells in Matrigel (CB17/Icr-Prkdc(scid)/IcrCrl), 1 × 10^6 NCI-H1048 cells in Matrigel (BomTac:NMRI-Foxn1nu and 5 × 10^6 NCI-H929 cells in Matrigel (CB17/Icr-Prkdc(scid)/IcrCrl). Tumor diameters were measured with a caliper three times a week. The volume of each tumor [in mm^3] was calculated according to the formula “tumor volume = length × diameter^2 × π/6.” To monitor side effects of treatment, mice were inspected daily for abnormalities and body weight was determined three times per week. Animals were sacrificed when the tumors reached a size of 1500 mm^3. […] Tumors were reported as regressing when the tumor volume at a given day was below the tumor volume at treatment start.

NCI-H1048 cells = test: cells; conditions: Homo sapiens, NCI-H1048, read-out: NCI-H1048 GI50
Method: (§7) NCI-H1048 were cultured in custom medium prepared by PanBioTech containing DMEM/F12 + 5% fetal calf serum, 0.005 mg/mL insulin, 0.01 mg/mL transferrin, 30 nM sodium selenite, 10 nM hydrocortisone, 10 nM β-estradiol and 4.5 mM 2 mM L-glutamine. […] All cell lines were cultured at 37 °C with 5% CO2 in a humidified incubator and have been regularly tested negatively for mycoplasm contamination.

[13] = mouse, in vivo; cited from earlier work
[14] = set-up: method as in PMID 30254093; conditions: species not given; cited from earlier work
A427 cells = test: cells; conditions: Homo sapiens, A-427, read-out: A427 GI50
Method: as §7

[15] = tested on: A427 cell line-derived NSCLC xenograft; test: A427 NSCLC subcutaneous xenograft model; assay type: in vivo, mouse
Method: as §3, §2

K562 cell line = test: cells; conditions: Homo sapiens, K562, read-out: K562 GI50
Method: (§4) NCI-H1048 were cultured in custom medium prepared by PanBioTech containing DMEM/F12 + 5% fetal calf serum, 0.005 mg/mL insulin, 0.01 mg/mL transferrin, 30 nM sodium selenite, 10 nM hydrocortisone, 10 nM β-estradiol and […] 2 mM L-glutamine.
(§5) Suspension cells were plated immediately before compound addition. Adherent cell lines were incubated overnight at 37 °C in a tissue culture incubator prior to compound addition. Compounds were added in triplicates using an HP D300e Digital Dispenser (Hewlett-Packard) or manually at the concentrations indicated and total volumes were normalized using dimethyl sulfoxide (DMSO) backfill, with final DMSO concentration of 0.5%. Control wells were treated with DMSO only.

NCI-H929 cell line = test: cells; conditions: Homo sapiens, NCI-H929, read-out: NCI-H929 GI50
Method: as §4, §5

Mcl-1 = Mcl-1 (Homo sapiens, UniProt Q07820); assay type: binding; conditions: read-out: TR-FRET Ki
Chain of Mcl-1 (Q07820 whole entry): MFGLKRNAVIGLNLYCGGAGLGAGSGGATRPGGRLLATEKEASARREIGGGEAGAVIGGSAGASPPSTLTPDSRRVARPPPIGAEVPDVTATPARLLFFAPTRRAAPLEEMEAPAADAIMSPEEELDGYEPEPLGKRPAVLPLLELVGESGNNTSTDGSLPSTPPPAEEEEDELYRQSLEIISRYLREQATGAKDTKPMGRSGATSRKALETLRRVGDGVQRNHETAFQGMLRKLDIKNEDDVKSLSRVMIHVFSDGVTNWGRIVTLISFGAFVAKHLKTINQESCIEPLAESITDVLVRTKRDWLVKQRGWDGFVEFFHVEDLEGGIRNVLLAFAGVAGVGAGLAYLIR
Excerpt: Mixtures containing vehicle without compound served as a negative control, while mixtures containing no protein served as a positive control.

[16] = docetaxel at 10 mg/kg q7d, single agent

Method for Mouse IV PK: as §6

COc1ccccc1-c1nccc(COc2ccccc2C[C@@H](Oc2ncnc3sc(-c4ccc(F)cc4)c(-c4ccc(OCCN5CCN(C)CC5)c(Cl)c4C)c23)C(=O)O)n1 [Compound 1]
toxicity reported in the clinic [1]: dose limiting toxicities

COc1c(OCC2CCOCC2)cc(N2C[C@@H](C)n3c(c(CCCOc4cc(C)c(Cl)c(C)c4)c4ccc(Cl)c(-c5c(C)nc(C)nc5C)c43)C2=O)c2c1cc(C(=O)O)n2C [Compound 26, (R)-7-(7-Chloro-10-(3-(4-chloro-3,5-dimethylphenoxy)propyl)-4-methyl-1-oxo-6-(2,4,6-trimethylpyrimidin-5-yl)-3,4-dihydropyrazino[1,2-a]indol-2(1H)-yl)-4-methoxy-1-methyl-5-((tetrahydro-2H-pyran-4-yl)methoxy)-1H-indole-2-carboxylic Acid]
metabolic stability in hepatocytes [2]: 19 % Qh
plasma protein binding lower than in human [3]: ~2 fold
solubility (Aqueous solubility): 15 mg/mL (≈ 17.3 mM)
metabolic stability in hepatocytes [4]: 40 % Qh
biliary clearance as share of the total clearance (Excretion study in rat): 60–75%
AUC ([5]; 60 mg/kg): 442 µM·h
AUC ([5]; 80 mg/kg): 635 µM·h
change in the median weight of the mice [6]: no significant change
plasma protein binding lower than human [7]: 3 fold
plasma protein binding lower than in human [8]: ~2 fold
metabolic stability in hepatocytes [9]: 35 % Qh
metabolic stability in hepatocytes [10]: 12 % Qh
AUC/Dose (Dog IV PK): 3860 nM*h/mpk
CL (Dog IV PK): 5.2 mL/min/kg
CL (% hep blood flow) (Dog IV PK): 17 % hep blood flow
metabolic stability in hepatocytes [11]: 22 % Qh
Ki (Bcl-2): 1.8 µM
substrate of OATP1B1/ABCC2 (OATP1B1/ABCC2): substrate
AUC ([12]; 26 at 60 mg/kg q7d IV): 552 µM·h
fraction unbound (Plasma protein binding): < 0.002
Ki (Bcl-XL): 36 µM
CL (Mouse IV PK; mouse IV, dosed at 25 mg/kg): 2.2 mL/min/kg
reduction in clearance from compound 20 (Mouse IV PK; mouse IV, relative to compound 20): 20 fold
Vd (Mouse IV PK; mouse, plasma, iv, 25 mg/kg): < 0.1 L/kg
clearance (Mouse IV PK; mouse, plasma, iv, 25 mg/kg): 2.2 mL/min/kg
half-life (Mouse IV PK; mouse, plasma, iv, 25 mg/kg): 3.7 h

CC[C@@]1(O)C(=O)OCc2c1cc1n(c2=O)Cc2cc3c(CN(C)C)c(O)ccc3nc2-1 [Topotecan, topotecan]
TGI d16 (NCI-H1048 SCLC xenograft): 94%
Tumor regression d16 (NCI-H1048 SCLC xenograft): 1 x/8
GI50 (NCI-H1048 cells): 0.014 µM

Cc1c(-c2c(-c3ccc(F)o3)sc3ncnc(O[C@H](Cc4ccccc4OCc4ccnn4CC(F)(F)F)C(=O)O)c23)ccc(OCCN2CCN(C)CC2)c1Cl [Compound S63845]
maximum tolerated dose lower than in wild-type mice [13]: ~3 fold

Cc1c(Cl)c2c(Cl)c(C)c1-c1c(-c3ccc(F)cc3)sc3ncnc(c13)O[C@@H](C(=O)O)Cc1cc(ccc1OCc1ccnc(-c3ccc(OC[C@H]4COCCO4)cc3)n1)OC[C@@H](CN1CCN(C)CC1)O2 [Compound 5]
toxicity reported in the clinic [1]: dose limiting toxicities

CO[C@H]1/C=C/C[C@H](C)[C@@H](C)S(=O)(=O)NC(=O)c2ccc3c(c2)N(C[C@@H]2CC[C@H]21)C[C@@]1(CCCc2cc(Cl)ccc21)CO3 [Compound 3]
T [14]: 14 h
Vss [14]: 0.6 L/kg

CC(=O)O[C@@]12CO[C@@H]1C[C@H](O)[C@@]1(C)C(=O)[C@H](O)C3=C(C)[C@@H](OC(=O)[C@H](O)[C@@H](NC(=O)OC(C)(C)C)c4ccccc4)C[C@@](O)([C@@H](OC(=O)c4ccccc4)[C@H]21)C3(C)C [Docetaxel, docetaxel]
GI50 (A427 cells): 4.4 µM
AUC ([12]; docetaxel at 10 mg/kg q7d): 15.8 µM·h
TGI d21 [15, 16]: 112%
Tumor regressions d21 [15, 16]: 8 x/8
tumor outgrowth began around day after treatment start ([15]; docetaxel at 10 mg/kg q7d alone): ~15 days

CO[C@]1(CN2CCN3CCCC[C@@H]3C2)/C=C/C[C@H](C)[C@@H](C)S(=O)(=O)NC(=O)c2ccc3c(c2)N(C[C@@H]2CC[C@H]21)C[C@@]1(CCCc2cc(Cl)ccc21)CO3 [Compound 4]
toxicity reported in the clinic [1]: dose limiting toxicities

Cc1cc(N2C[C@@H](C)n3c(c(CCCOc4cc(C)c(Cl)c(C)c4)c4ccc(Cl)c(-c5c(C)nn(C)c5C)c43)C2=O)c2c(c1)cc(C(=O)O)n2C [Compound 11, (R)-7-(7-Chloro-10-(3-(4-chloro-3,5-dimethylphenoxy)propyl)-4-methyl-1-oxo-6-(1,3,5-trimethyl-1H-pyrazol-4-yl)-3,4-dihydropyrazino[1,2-a]indol-2(1H)-yl)-1,5-dimethyl-1H-indole-2-carboxylic Acid]
GI50 (K562 cell line): > 12.5 µM
GI50 (NCI-H929 cell line): 0.14 ± 0.11 µM
Ki (Mcl-1): 0.000205 ± 1.8e-05 µM
